Values quoted from earlier work, collected in PMC9800952 (Asian Journal of Pharmaceutical Sciences, 2022).

Details: pH 7

- LogD (pH7): 4.28
SMILES: CC(C)OC(=O)CCC/C=C\C[C@@H]1[C@@H](CC[C@@H](O)CCc2ccccc2)[C@H](O)C[C@@H]1O [latanoprost]
